Reference: patent US10683279B2, “Apoptosis signal-regulating kinase 1 inhibitors and methods of use thereof” (Enanta Pharmaceuticals, Inc., priority 2017, dated 2020)

Target: ASK1 (Homo sapiens (Human), UniProt Q99683)
Experiment: ASK1 kinase inhibition, HTRF KinEASE Assay System (TR-FRET)
Format: biochemical
Conditions: 5 nM ASK1 kinase, 1 uM STK3 peptide substrate, 100 uM ATP, 3 hours
Experimental: The ability (IC50) of compounds to inhibit ASK1 kinase activity was determined by HTRF® KinEASE™ Assay System.
ASK1 was purchased from Thermofisher (Catalogue # PV401.1), ATP was purchased from Sigma (Catalogue # A7699), HTRF® KinEASE™ Assay System was obtained from Cisbio (Bedford, Mass). ½ Area plate was purchased from Perkin Elmer (Catalogue # #6005560). HTRF® KinEASE™-STK is a generic method for measuring serine/threonine kinase activities using a time-resolved fluorescence resonance energy transfer (TR-FRET) immunoassay. The IC50 value for each compound was determined in the presence of compound (various concentration from 0 to 10 μM) and a fixed amount of ATP and peptide substrates. The test compound, luM STK3 peptide substrate, and 5 nM of ASK1 kinase are incubated with kinase reaction buffer containing 50 mM HEPES pH 7.5, 0.01% BRIJ-35, 10 mM MgCl2, and 1 mM EGTA for 30 minutes. 100 uM ATP is added to start kinase reaction and incubated for 3 hours. The STK3-antibody labeled with Eu^3+-Cryptate and 125 nM streptavidin-XL665 are mixed in a single addition with stop reagents provided by the Cisbio kit used to stop the kinase reaction. Fluorescence is detected using an Envision Multilabeled 2014 reader from PerkinElmer. The Fluorescence is measured at 615 nm (Cryptate) and 665 nm (XL665) and a ratio of 665 nm/615 nm is calculated for each well. The resulting TR-FRET is proportional to the phosphorylation level. Staurosporine was used as the positive control. IC50 was determined by XLfit 5.3.
By using above method, the inhibition of ASK1 was tested for the compound of formula (I). IC50 ranges are as follows: A<1 nM; 1 nM<B<10 nM; 10 nM<C<100 nM; 100 nM<D

ASK1, sequence (Q99683 whole entry): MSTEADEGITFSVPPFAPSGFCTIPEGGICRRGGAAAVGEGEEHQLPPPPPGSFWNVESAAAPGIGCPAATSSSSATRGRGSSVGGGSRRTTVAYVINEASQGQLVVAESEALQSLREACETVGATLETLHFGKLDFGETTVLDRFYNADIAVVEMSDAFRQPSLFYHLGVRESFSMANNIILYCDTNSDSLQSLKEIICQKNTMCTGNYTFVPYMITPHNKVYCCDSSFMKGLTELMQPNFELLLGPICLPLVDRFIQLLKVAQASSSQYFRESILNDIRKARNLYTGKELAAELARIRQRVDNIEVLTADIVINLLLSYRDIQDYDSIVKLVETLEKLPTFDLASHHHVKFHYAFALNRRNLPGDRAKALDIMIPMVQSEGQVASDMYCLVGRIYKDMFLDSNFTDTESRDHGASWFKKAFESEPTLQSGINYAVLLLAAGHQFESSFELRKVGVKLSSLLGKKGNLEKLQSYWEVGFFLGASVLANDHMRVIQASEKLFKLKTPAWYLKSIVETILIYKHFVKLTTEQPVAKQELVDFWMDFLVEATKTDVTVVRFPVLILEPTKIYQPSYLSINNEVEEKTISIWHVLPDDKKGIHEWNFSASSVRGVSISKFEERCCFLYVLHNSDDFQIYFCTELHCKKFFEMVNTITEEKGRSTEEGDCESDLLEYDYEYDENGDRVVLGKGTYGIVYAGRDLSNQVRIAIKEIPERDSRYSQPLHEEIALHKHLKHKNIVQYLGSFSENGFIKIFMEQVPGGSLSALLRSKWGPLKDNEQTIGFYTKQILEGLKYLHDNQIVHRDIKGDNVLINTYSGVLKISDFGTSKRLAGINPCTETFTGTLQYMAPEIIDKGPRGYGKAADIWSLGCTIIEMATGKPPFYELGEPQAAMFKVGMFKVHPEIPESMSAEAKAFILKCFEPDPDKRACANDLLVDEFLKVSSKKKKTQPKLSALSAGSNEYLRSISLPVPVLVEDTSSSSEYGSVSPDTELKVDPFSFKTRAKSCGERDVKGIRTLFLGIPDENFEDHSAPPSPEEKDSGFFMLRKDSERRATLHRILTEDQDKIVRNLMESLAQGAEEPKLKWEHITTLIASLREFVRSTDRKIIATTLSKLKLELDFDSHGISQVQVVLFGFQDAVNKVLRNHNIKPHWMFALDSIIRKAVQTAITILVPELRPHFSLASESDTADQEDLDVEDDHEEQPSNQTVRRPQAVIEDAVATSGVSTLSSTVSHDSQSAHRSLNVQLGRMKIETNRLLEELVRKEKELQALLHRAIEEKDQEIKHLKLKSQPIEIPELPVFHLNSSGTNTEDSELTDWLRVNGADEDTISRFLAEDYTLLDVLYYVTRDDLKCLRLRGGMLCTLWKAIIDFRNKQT

Compound	IC50 [nM]
CC(C)n1nnnc1-c1cccc(NC(=O)c2cc(-n3cnc(C4CC4)c3)c(N3CCN(C)CC3)cn2)n1 [Example 47a]	1 to 10
Cc1cc(F)c(C(=O)Nc2cccc(-c3nnnn3C(C)C)n2)cc1-n1cnc(C(F)(F)F)c1 [Example 27a]	10 to 100
Cc1cc(F)c(C(=O)Nc2cccc(-c3nnnn3C(CO)CO)n2)cc1-n1cnc(C2CC2)c1 [Example 26a]	< 1
Cc1cc(F)c(C(=O)Nc2cccc(-c3nnnn3[C@H]3CCOC3)n2)cc1-n1cnc(C2CC2)c1 [Example 18a]	1 to 10
CC(C)n1nnnc1-c1nc(NC(=O)c2cc(-n3cnc(C4CC4)c3)c(N3CCN(C)CC3)cn2)cs1 [Example 44a]	1 to 10
CC(C)n1nnnc1-c1cccc(NC(=O)c2cc(-n3cnc(C4CC4)c3)c(C(F)(F)F)cc2F)n1 [Example 37a]	1 to 10
C[C@H](CO)n1nnnc1-c1cccc(NC(=O)c2cc(-n3cnc(C4CC4)c3)c(C(F)F)cn2)n1 [Example 55a]	1 to 10
Cc1cc(F)c(C(=O)Nc2cccc(-c3nnnn3CC(F)F)n2)cc1-n1cnc(C2CC2)c1 [Example 12a]	1 to 10
Cc1cc(F)c(C(=O)Nc2cccc(-c3nnnn3CC(C)C)n2)cc1-n1cnc(C2CC2)c1 [Example 9a]	10 to 100
CC(C)n1nnnc1-c1cccc(NC(=O)c2cc(-n3cnc(C4CC4)c3)c(C(F)F)cn2)n1 [Example 54a]	1 to 10
CC(C)n1nnnc1-c1nc(NC(=O)c2cc(-n3cnc(C4CC4)c3)c(N3CCOCC3)cn2)cs1 [Example 45a]	1 to 10
Cc1cc(F)c(C(=O)Nc2cccc(-c3nnnn3C(C)C)n2)cc1-n1cnc(C(C)(C)C)c1 [Example 29a]	1 to 10
Cc1cc(F)c(C(=O)Nc2cccc(-c3nnnn3[C@H]3C[C@@H](O)C3)n2)cc1-n1cnc(C2CC2)c1 [Example 21a]	1 to 10
Cc1cc(F)c(C(=O)Nc2cccc(-c3nnnn3[C@H](C)CO)n2)cc1-n1cnc(C(C)(C)C)c1 [Example 30a]	1 to 10
Cc1cc(F)c(C(=O)Nc2cccc(-n3ccnc3C(C)C)n2)cc1-n1cnc(C2CC2)c1 [Example 3c, 5-(4-cyclopropyl-1H-imidazol-1-yl)-2-fluoro-N-(6-(2-isopropyl-1H-imidazol-1-yl)pyridin-2-yl)-4-methylbenzamide]	> 1000
Cc1cc(F)c(C(=O)Nc2cccc(-c3nnnn3C3CCC3)n2)cc1-n1cnc(C2CC2)c1 [Example 10a]	1 to 10
CC(C)n1nnnc1-c1cccc(NC(=O)c2cc(-n3cnc(C4CC4)c3)c(F)cn2)n1 [Example 39a]	1 to 10
